Like-named read-outs stand apart in the source and are kept apart here.
Tests used:
PRKAA2 = biological target: T1, PRKAA2 (Homo sapiens, UniProt P54646); test: DiscoverX scanMAX competition binding assay; conditions: read-out: % inhibition in the DiscoverX scanMAX panel at 1 μM
T1 construct: purchased Eurofins DiscoverX Corporation
Text: Based on its narrow profile when tested in the combined Nanosyn and TSA panels, GW296115 was included in the recently released Kinase Chemogenomic Set (KCGS)[15]. All of the data presented in the Introduction section was collected prior to the inclusion of GW296115 in KCGS and everything that follows has been subsequently generated. Since its inclusion in PKIS and more recently KCGS, we have carried out a broader round of screening at DiscoverX. This profiling data has not been previously released and is reported here for the first time. GW296115 was profiled against 403 wild type human kinases at 1 μM using the DiscoverX scanMAX screening platform, which employs an active site-directed competition binding assay to quantitatively measure interactions between test compounds and kinases, [16]. GW296115 inhibited 25 kinases > 90% at 1 μM, resulting in a selectivity index (S10) of 0.062 at 1 μM (Table S2, Fig. 1C)[17].
To ascertain selectivity of GW296115 and validate our DiscoverX screening results using an orthogonal assay format, we chose to utilize Eurofins enzymatic kinase assays in dose–response at the Km of ATP.
The scanMAX assays were performed at Eurofins DiscoverX Corporation as previously described.

[1] = test system: cytoplasmic domain of PDGFR; set-up: method as in PMID 10048786; conditions: in vitro; read-out: IC50, autophosphorylation of the cytoplasmic domain of PDGFR in vitro; cited from earlier work
STK33 = STK33 (Homo sapiens, UniProt Q9BYT3); set-up: purchased Eurofins; method as in earlier work; conditions: cited from earlier work
PIM3 = PIM3 (Homo sapiens, UniProt Q86V86); set-up: purchased Eurofins DiscoverX (scanMAX) / Eurofins enzymatic assays; method as in earlier work; conditions: cited from earlier work
[2] = test system: panel of 224 recombinant kinases; set-up: method as in PMID 26501955; conditions: Nanosyn; cited from earlier work
STK17B/DRAK2 = biological target: T2, STK17B/DRAK2 (Homo sapiens, UniProt O94768); set-up: purchased Eurofins; method as in earlier work; conditions: cited from earlier work
T2 sequence (O94768 1-372): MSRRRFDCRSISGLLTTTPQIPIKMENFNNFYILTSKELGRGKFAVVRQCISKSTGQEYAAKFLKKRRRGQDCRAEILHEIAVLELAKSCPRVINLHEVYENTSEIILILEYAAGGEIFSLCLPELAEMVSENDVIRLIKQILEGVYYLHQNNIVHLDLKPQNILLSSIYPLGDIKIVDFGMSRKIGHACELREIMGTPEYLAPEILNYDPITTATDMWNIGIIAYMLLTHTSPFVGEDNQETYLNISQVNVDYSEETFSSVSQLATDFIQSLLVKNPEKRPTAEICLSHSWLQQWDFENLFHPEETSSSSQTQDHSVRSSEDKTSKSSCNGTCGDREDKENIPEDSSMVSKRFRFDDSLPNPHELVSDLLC

RPS6KA3/RSK2 = biological target: T3, RPS6KA3/RSK2 (Homo sapiens, UniProt P51812); test: Eurofins kinase enzymatic radiometric assay; assay type: biochemical; conditions: Km of ATP, 9-point curve in duplicate
T3 construct: purchased Eurofins
Text: Due to our interest in the activity of GW296115 on several understudied IDG kinases, we collected full dose–response curves for all wild type kinases inhibited ≥ 75% in the DiscoverX panel that were offered by Eurofins. Having data in orthogonal formats is a powerful way to confirm inhibitory activity and adds rigor to our results. Eurofins has kinase enzymatic radiometric assays for 35 of the kinases on this list (Table S2) and a kinase enzymatic LANCE assay for one additional kinase (MAP2K5/MEK5).
Eurofins kinase enzymatic radiometric assays were carried out at the Km of ATP in dose–response (9-pt curve in duplicate) for each kinase for which it was offered.

60 cancer cell lines = test system: 60 cancer cell lines; set-up: method as in PMID 26501955; conditions: cited from earlier work
[3] = test system: cytoplasmic domain of PDGFR; set-up: method as in PMID 10048786; conditions: insect cells; read-out: IC50, autophosphorylation of the cytoplasmic domain of PDGFR in insect cells; cited from earlier work
CHEK1 = biological target: T4, CHEK1 (Homo sapiens, UniProt O14757); test: DiscoverX scanMAX competition binding assay; conditions: read-out: % inhibition at 1 μM
T4 construct: purchased Eurofins DiscoverX Corporation
T4 sequence (O14757 whole entry): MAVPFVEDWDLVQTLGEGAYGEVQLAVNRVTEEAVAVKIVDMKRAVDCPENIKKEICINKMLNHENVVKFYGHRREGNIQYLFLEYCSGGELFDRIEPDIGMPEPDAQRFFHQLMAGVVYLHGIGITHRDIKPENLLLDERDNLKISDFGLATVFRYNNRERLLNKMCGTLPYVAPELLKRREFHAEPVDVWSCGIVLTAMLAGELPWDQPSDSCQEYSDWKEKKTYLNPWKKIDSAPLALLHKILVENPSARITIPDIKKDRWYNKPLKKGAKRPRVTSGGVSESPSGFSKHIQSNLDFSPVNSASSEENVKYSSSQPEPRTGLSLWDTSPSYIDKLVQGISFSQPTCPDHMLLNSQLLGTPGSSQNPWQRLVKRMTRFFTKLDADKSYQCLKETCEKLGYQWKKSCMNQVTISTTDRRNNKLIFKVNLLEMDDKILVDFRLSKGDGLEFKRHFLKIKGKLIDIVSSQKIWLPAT

T3 sequence (P51812 whole entry): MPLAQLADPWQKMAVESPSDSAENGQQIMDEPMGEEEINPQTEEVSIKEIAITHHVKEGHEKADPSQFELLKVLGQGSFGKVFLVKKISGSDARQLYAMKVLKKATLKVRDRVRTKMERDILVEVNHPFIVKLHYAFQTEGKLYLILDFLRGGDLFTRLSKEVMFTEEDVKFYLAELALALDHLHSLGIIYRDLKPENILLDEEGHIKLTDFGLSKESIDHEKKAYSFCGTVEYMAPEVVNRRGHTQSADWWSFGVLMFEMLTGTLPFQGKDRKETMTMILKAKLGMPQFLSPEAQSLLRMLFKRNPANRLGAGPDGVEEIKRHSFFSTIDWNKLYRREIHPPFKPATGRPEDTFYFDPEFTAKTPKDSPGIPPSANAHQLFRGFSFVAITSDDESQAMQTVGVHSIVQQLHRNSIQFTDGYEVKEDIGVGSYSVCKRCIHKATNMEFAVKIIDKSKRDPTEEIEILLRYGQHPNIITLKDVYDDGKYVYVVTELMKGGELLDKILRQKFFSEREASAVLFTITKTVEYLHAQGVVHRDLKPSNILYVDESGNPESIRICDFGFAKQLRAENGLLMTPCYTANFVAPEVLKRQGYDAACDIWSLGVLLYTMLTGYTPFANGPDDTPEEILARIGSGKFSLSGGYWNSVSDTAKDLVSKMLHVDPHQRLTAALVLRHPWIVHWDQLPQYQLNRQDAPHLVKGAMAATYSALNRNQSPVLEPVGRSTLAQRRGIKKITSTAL
T1 sequence (P54646 whole entry): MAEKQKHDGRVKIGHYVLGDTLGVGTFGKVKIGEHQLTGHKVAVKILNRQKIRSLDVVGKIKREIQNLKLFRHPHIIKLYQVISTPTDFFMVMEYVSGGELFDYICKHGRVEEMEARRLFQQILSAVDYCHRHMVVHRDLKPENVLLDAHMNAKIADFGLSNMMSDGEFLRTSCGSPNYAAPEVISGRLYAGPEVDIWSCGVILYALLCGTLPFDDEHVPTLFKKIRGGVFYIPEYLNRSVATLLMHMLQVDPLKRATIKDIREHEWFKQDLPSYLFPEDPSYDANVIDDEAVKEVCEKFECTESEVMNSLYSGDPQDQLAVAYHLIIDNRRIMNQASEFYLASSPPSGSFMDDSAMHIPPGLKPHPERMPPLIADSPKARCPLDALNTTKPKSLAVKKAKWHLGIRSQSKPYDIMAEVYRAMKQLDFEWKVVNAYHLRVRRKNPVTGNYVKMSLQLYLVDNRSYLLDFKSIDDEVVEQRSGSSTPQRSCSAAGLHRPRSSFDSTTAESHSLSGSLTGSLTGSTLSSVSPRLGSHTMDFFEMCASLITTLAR
Sequence of STK33 (Q9BYT3 whole entry): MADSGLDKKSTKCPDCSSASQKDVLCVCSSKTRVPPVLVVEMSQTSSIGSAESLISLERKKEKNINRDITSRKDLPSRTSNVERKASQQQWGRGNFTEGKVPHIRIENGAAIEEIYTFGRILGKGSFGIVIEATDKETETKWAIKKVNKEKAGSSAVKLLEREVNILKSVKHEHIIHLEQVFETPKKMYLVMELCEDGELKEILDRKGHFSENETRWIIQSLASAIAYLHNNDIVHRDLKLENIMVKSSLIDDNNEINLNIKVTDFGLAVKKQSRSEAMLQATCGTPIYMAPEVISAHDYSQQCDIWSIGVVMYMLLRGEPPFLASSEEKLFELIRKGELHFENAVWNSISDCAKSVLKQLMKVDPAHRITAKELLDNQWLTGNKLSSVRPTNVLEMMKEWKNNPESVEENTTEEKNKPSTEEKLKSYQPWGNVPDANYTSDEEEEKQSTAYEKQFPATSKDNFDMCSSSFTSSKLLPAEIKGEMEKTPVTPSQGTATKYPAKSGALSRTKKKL

For `COc1ccc2[nH]c3c4[nH]c5ccc(OC)cc5c4c4c(c3c2c1)C(=O)NC4=O` [GW296115], the inhibition at 1 µM (PRKAA2) is given as 20%, the IC50 [1] is given as 1.8 ± 0.12 µM and the “TSA ΔTm at 10 μM (°C)” value (STK33) is given as 9.8 °C. For the same compound, the “Nanosyn % Inhibition at 1 μM” value (PIM3) was 83%, the “inhibition at 100 nM of the 3 kinases inhibited > 90% at 1 μM” value [2] was greater than 70% and the “TSA ΔTm at 10 μM (°C)” value (STK17B/DRAK2) was 18.3 °C. For the same compound, the IC50 (RPS6KA3/RSK2) was 0.011 µM, the “effect on cell growth, NCI60 panel” value (60 cancer cell lines) was “does not impact cell growth” and the IC50 [3] was 2 µM. For the same compound, the inhibition at 1 µM (CHEK1) was 70%.
